Data set [1] is described as follows: LA gelation studies of drug solutions (e-beam irradiated, 60 °C with agitation, inversion test). The data set is classed as physicochemical. The settings on record: 150 rpm, up to 16 days, leuprolide acetate content. How it is done: Drug solutions were prepared as described above and filled into syringes or glass vials. Syringes were untreated, contained various amounts of silicone, or were plasma coated for lubrication. Samples were irradiated by e-beam irradiation at not less than 25 kGy and stored at accelerated conditions of 60° C. with agitation at 150 rpm for up to 16 days. Samples were inspected periodically to determine if the drug solution remained a solution or had formed a solid/gel by an inversion test. Samples that had “gelled” were transferred to 5° C. for subsequent testing.
The gelation rate for each sample was calculated as Rate=1/(simulated 5° C. age at time of gelation in days). The Arrhenius equation was used to determine the simulated age, assuming standard reaction rate doubling for every 10° C. increase in temperature. […] Data was analyzed using JMP. […] Container type and lubrication were not significant.
Samples were tested for leuprolide content by HPLC. Leuprolide content was then converted to leuprolide acetate by multiplying by 1.078 (based on molecular mass ratios). A marked difference in leuprolide acetate content between the gelled and non-gelled samples was seen, with the tipping point between solution and solid/gelled samples occurring at about 45% LA.

The nature of data set [2]: Solubility of LA in organic solvent. Format: physicochemical. To be noted: in NMP or DMSO. From the text: To produce the drug/solvent bulk solution comprising the API (LA), the desired amount of the LA was combined with the solvent NMP or DMSO or combination of solvents with or without a co-solvent or other additives, in the indicated amounts (see individual experiments below). The API and solvent were combined in a glass vial or jar. Jars were mixed using the jar mill, Turbula, or shaker at room temperature until homogeneous. LA is soluble in NMP or DMSO and can load higher concentrations (at least 40% w/w). After dissolving the API in the organic solvent, the bulk solution was manually filled into syringes and capped with a tip cap. The syringes used for filling were either 1.2 mL male polypropylene syringes, 1.2 mL male cyclic olefin copolymer syringes or 1 mL male cyclic olefin copolymer syringes. Filled syringes were then packaged in labeled foil pouches with a Syringe A (polymer-solvent solution) and a desiccant pack and the pouches were sealed. After filling the syringes with the formulations, they were terminally sterilized with an external radiation dose of 30 kGy from e-beam processing. After terminal sterilization, the syringes were stored under refrigerated conditions (e.g., 2-8° C.) or accelerated conditions (>25° C. see individual experiments).

On to `CCNC(=O)[C@@H]1CCCN1C(=O)[C@H](CCCNC(=N)N)NC(=O)[C@H](CC(C)C)NC(=O)[C@@H](CC(C)C)NC(=O)[C@H](Cc1ccc(O)cc1)NC(=O)[C@H](CO)NC(=O)[C@H](Cc1c[nH]c2ccccc12)NC(=O)[C@H](Cc1c[nH]cn1)NC(=O)[C@@H]1CCC(=O)N1` [LA, leuprolide acetate], for which, in data set [1], the “tipping point between solution and solid/gelled samples” value is recorded as “about 45 % LA”. The “solubility (loading)” value in data set [2] is given as “at least 40 % w/w”.

Source of the values: patent US20260315567A1, “POLYMERIC LEUPROLIDE ACETATE FORMULATIONS” (Tolmar International Limited, priority 2023, published 2026).
